Tests used:
Experiment in all cases: B2 Post-Emergence Efficacy - Test 2
Format in all cases: in vivo
Sorghum bicolour (SORVU) = details: 15 days after application, 0=no damage, 100=total kill
In short: (§1)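 Pots of plants grown 12 days in a glasshouse (24/18 or 20/16 °C day/night, 16 h light, 65% humidity) were sprayed post-emergence with aqueous IF50-formulated compound plus 0.2% v/v Genapol X080. Damage scored 15 days after application on a 0–100 scale (0 = no damage, 100 = total kill).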

Bidens pilosa (BIDPI) = details: 15 days after application, 0-100 scale
In short: as §1

Eleisine indica (ELEIN) = details: 15 days after application, 0=no damage, 100=total kill
In short: as §1

[1] = system: Chenopodium album (CHEAL); details: 15 days after application, 0-100 scale
In short: as §1

Lolium perenne (LOLPE) = details: 15 days after application, 0-100 scale
In short: as §1

[2] = system: Triticum aestivum (TRZAW); details: 15 days after application, 0-100 scale
In short: as §1

Stellaria media (STEME) = details: 15 days after application, 0-100 scale
In short: as §1

Poa annua (POAAN) = details: 15 days after application, 0-100 scale
In short: as §1

Galium aparine (GALAP) = details: 15 days after application, 0-100 scale
In short: as §1

[3] = system: Panicum miliaceum (PANMI); details: 15 days after application, 0=no damage, 100=total kill
In short: as §1

Brassica napus (BRSNN) = details: 15 days after application, 0-100 scale
In short: as §1

Sida spinosa (SIDSP) = details: 15 days after application, 0-100 scale
In short: as §1

Veronica persica (VERPE) = details: 15 days after application, 0-100 scale
In short: as §1

[4] = system: Digitaria sanguinalis (DIGSA); details: 15 days after application, 0=no damage, 100=total kill
In short: as §1

[5] = system: Alopecurus myosuroides (ALOMY); details: 15 days after application, 0-100 scale
In short: as §1

Beta vulgaris (BEAVA) = details: 15 days after application, 0-100 scale
In short: as §1

[6] = system: Xanthium strumarium (XANST); details: 15 days after application, 0-100 scale
In short: as §1

Zea mays (ZEAMX) = details: 15 days after application; for Herbicidal activity ZEAMX: 0-100 scale; for Herbicidal activity on a 0-100 scale, ZEAMX: 0=no damage, 100=total kill
In short: as §1

Cc1nn(C)c(=O)c(-c2c(F)ccc(Cl)c2CCc2ccccc2C(F)(F)F)c1O [Compound 1.066, 4-[3-chloro-6-fluoro-2-[2-[2-(trifluoromethyl)phenyl]ethyl]phenyl]-5-hydroxy-2,6-dimethyl-pyridazin-3-one]
Herbicidal activity on a 0-100 scale, SORVU (Sorghum bicolour (SORVU); 15 g/Ha): 0 | Herbicidal activity on a 0-100 scale, SORVU (Sorghum bicolour (SORVU); 30 g/Ha): 20 | Herbicidal activity on a 0-100 scale, SORVU (Sorghum bicolour (SORVU); 60 g/Ha): 60 | Herbicidal activity on a 0-100 scale, SORVU (Sorghum bicolour (SORVU); 125 g/Ha): 80 | Herbicidal activity on a 0-100 scale, SORVU (Sorghum bicolour (SORVU); 250 g/Ha): 90 | Herbicidal activity on a 0-100 scale, SORVU (Sorghum bicolour (SORVU); 500 g/Ha): 100 | Herbicidal activity BIDPI (Bidens pilosa (BIDPI); 15 g/Ha): 50 | Herbicidal activity BIDPI (Bidens pilosa (BIDPI); 30 g/Ha): 60 | Herbicidal activity BIDPI (Bidens pilosa (BIDPI); 60 g/Ha): 70 | Herbicidal activity BIDPI (Bidens pilosa (BIDPI); 125 g/Ha): 80 | Herbicidal activity BIDPI (Bidens pilosa (BIDPI); 250 g/Ha): 90 | Herbicidal activity BIDPI (Bidens pilosa (BIDPI); 500 g/Ha): 90 | Herbicidal activity on a 0-100 scale, ELEIN (Eleisine indica (ELEIN); 15 g/Ha): 0 | Herbicidal activity on a 0-100 scale, ELEIN (Eleisine indica (ELEIN); 30 g/Ha): 20 | Herbicidal activity on a 0-100 scale, ELEIN (Eleisine indica (ELEIN); 60 g/Ha): 70 | Herbicidal activity on a 0-100 scale, ELEIN (Eleisine indica (ELEIN); 125 g/Ha): 70 | Herbicidal activity on a 0-100 scale, ELEIN (Eleisine indica (ELEIN); 250 g/Ha): 70 | Herbicidal activity on a 0-100 scale, ELEIN (Eleisine indica (ELEIN); 500 g/Ha): 80 | Herbicidal activity CHEAL ([1]; 30 g/Ha): 90 | Herbicidal activity CHEAL ([1]; 60 g/Ha): 90 | Herbicidal activity CHEAL ([1]; 125 g/Ha): 90 | Herbicidal activity CHEAL ([1]; 250 g/Ha): 100 | Herbicidal activity CHEAL ([1]; 500 g/Ha): 100 | Herbicidal activity LOLPE (Lolium perenne (LOLPE); 15 g/Ha): 10 | Herbicidal activity LOLPE (Lolium perenne (LOLPE); 30 g/Ha): 20 | Herbicidal activity LOLPE (Lolium perenne (LOLPE); 60 g/Ha): 80 | Herbicidal activity LOLPE (Lolium perenne (LOLPE); 125 g/Ha): 90 | Herbicidal activity LOLPE (Lolium perenne (LOLPE); 250 g/Ha): 90 | Herbicidal activity LOLPE (Lolium perenne (LOLPE); 500 g/Ha): 100 | Herbicidal activity TRZAW ([2]; 15 g/Ha): 0 | Herbicidal activity TRZAW ([2]; 30 g/Ha): 10 | Herbicidal activity TRZAW ([2]; 60 g/Ha): 40 | Herbicidal activity TRZAW ([2]; 125 g/Ha): 60 | Herbicidal activity TRZAW ([2]; 250 g/Ha): 70 | Herbicidal activity TRZAW ([2]; 500 g/Ha): 80 | Herbicidal activity STEME (Stellaria media (STEME); 15 g/Ha): 80 | Herbicidal activity STEME (Stellaria media (STEME); 30 g/Ha): 60 | Herbicidal activity STEME (Stellaria media (STEME); 60 g/Ha): 90 | Herbicidal activity STEME (Stellaria media (STEME); 125 g/Ha): 90 | Herbicidal activity STEME (Stellaria media (STEME); 250 g/Ha): 90 | Herbicidal activity STEME (Stellaria media (STEME); 500 g/Ha): 100 | Herbicidal activity POAAN (Poa annua (POAAN); 15 g/Ha): 20 | Herbicidal activity POAAN (Poa annua (POAAN); 30 g/Ha): 70 | Herbicidal activity POAAN (Poa annua (POAAN); 60 g/Ha): 80 | Herbicidal activity POAAN (Poa annua (POAAN); 125 g/Ha): 90 | Herbicidal activity POAAN (Poa annua (POAAN); 250 g/Ha): 90 | Herbicidal activity POAAN (Poa annua (POAAN); 500 g/Ha): 90 | Herbicidal activity GALAP (Galium aparine (GALAP); 15 g/Ha): 20 | Herbicidal activity GALAP (Galium aparine (GALAP); 30 g/Ha): 20 | Herbicidal activity GALAP (Galium aparine (GALAP); 60 g/Ha): 20 | Herbicidal activity GALAP (Galium aparine (GALAP); 125 g/Ha): 20 | Herbicidal activity GALAP (Galium aparine (GALAP); 250 g/Ha): 30 | Herbicidal activity GALAP (Galium aparine (GALAP); 500 g/Ha): 90 | Herbicidal activity on a 0-100 scale, PANMI ([3]; 15 g/Ha): 0 | Herbicidal activity on a 0-100 scale, PANMI ([3]; 30 g/Ha): 50 | Herbicidal activity on a 0-100 scale, PANMI ([3]; 60 g/Ha): 60 | Herbicidal activity on a 0-100 scale, PANMI ([3]; 125 g/Ha): 80 | Herbicidal activity on a 0-100 scale, PANMI ([3]; 250 g/Ha): 100 | Herbicidal activity on a 0-100 scale, PANMI ([3]; 500 g/Ha): 100 | Herbicidal activity BRSNN (Brassica napus (BRSNN); 15 g/Ha): 90 | Herbicidal activity BRSNN (Brassica napus (BRSNN); 30 g/Ha): 90 | Herbicidal activity BRSNN (Brassica napus (BRSNN); 60 g/Ha): 90 | Herbicidal activity BRSNN (Brassica napus (BRSNN); 125 g/Ha): 90 | Herbicidal activity BRSNN (Brassica napus (BRSNN); 250 g/Ha): 90 | Herbicidal activity BRSNN (Brassica napus (BRSNN); 500 g/Ha): 90 | Herbicidal activity SIDSP (Sida spinosa (SIDSP); 15 g/Ha): 40 | Herbicidal activity SIDSP (Sida spinosa (SIDSP); 30 g/Ha): 80 | Herbicidal activity SIDSP (Sida spinosa (SIDSP); 60 g/Ha): 80 | Herbicidal activity SIDSP (Sida spinosa (SIDSP); 125 g/Ha): 90 | Herbicidal activity SIDSP (Sida spinosa (SIDSP); 250 g/Ha): 90 | Herbicidal activity SIDSP (Sida spinosa (SIDSP); 500 g/Ha): 100 | Herbicidal activity VERPE (Veronica persica (VERPE); 15 g/Ha): 80 | Herbicidal activity VERPE (Veronica persica (VERPE); 30 g/Ha): 90 | Herbicidal activity VERPE (Veronica persica (VERPE); 60 g/Ha): 100 | Herbicidal activity VERPE (Veronica persica (VERPE); 125 g/Ha): 100 | Herbicidal activity VERPE (Veronica persica (VERPE); 250 g/Ha): 100 | Herbicidal activity VERPE (Veronica persica (VERPE); 500 g/Ha): 100 | Herbicidal activity on a 0-100 scale, DIGSA ([4]; 15 g/Ha): 0 | Herbicidal activity on a 0-100 scale, DIGSA ([4]; 30 g/Ha): 20 | Herbicidal activity on a 0-100 scale, DIGSA ([4]; 60 g/Ha): 20 | Herbicidal activity on a 0-100 scale, DIGSA ([4]; 125 g/Ha): 40 | Herbicidal activity on a 0-100 scale, DIGSA ([4]; 250 g/Ha): 70 | Herbicidal activity on a 0-100 scale, DIGSA ([4]; 500 g/Ha): 70 | Herbicidal activity ALOMY ([5]; 15 g/Ha): 20 | Herbicidal activity ALOMY ([5]; 30 g/Ha): 50 | Herbicidal activity ALOMY ([5]; 60 g/Ha): 70 | Herbicidal activity ALOMY ([5]; 125 g/Ha): 80 | Herbicidal activity ALOMY ([5]; 250 g/Ha): 90 | Herbicidal activity ALOMY ([5]; 500 g/Ha): 90 | Herbicidal activity BEAVA (Beta vulgaris (BEAVA); 15 g/Ha): 80 | Herbicidal activity BEAVA (Beta vulgaris (BEAVA); 30 g/Ha): 80 | Herbicidal activity BEAVA (Beta vulgaris (BEAVA); 60 g/Ha): 80 | Herbicidal activity BEAVA (Beta vulgaris (BEAVA); 125 g/Ha): 80 | Herbicidal activity BEAVA (Beta vulgaris (BEAVA); 250 g/Ha): 80 | Herbicidal activity BEAVA (Beta vulgaris (BEAVA); 500 g/Ha): 90 | Herbicidal activity XANST ([6]; 60 g/Ha): 90 | Herbicidal activity XANST ([6]; 250 g/Ha): 100 | Herbicidal activity XANST ([6]; 500 g/Ha): 100 | Herbicidal activity ZEAMX (Zea mays (ZEAMX); 15 g/Ha): 0 | Herbicidal activity on a 0-100 scale, ZEAMX (Zea mays (ZEAMX); 15 g/Ha): 0 | Herbicidal activity ZEAMX (Zea mays (ZEAMX); 30 g/Ha): 20 | Herbicidal activity on a 0-100 scale, ZEAMX (Zea mays (ZEAMX); 30 g/Ha): 20 | Herbicidal activity ZEAMX (Zea mays (ZEAMX); 60 g/Ha): 20 | Herbicidal activity on a 0-100 scale, ZEAMX (Zea mays (ZEAMX); 60 g/Ha): 20 | Herbicidal activity ZEAMX (Zea mays (ZEAMX); 125 g/Ha): 20 | Herbicidal activity on a 0-100 scale, ZEAMX (Zea mays (ZEAMX); 125 g/Ha): 20 | Herbicidal activity ZEAMX (Zea mays (ZEAMX); 250 g/Ha): 30 | Herbicidal activity on a 0-100 scale, ZEAMX (Zea mays (ZEAMX); 250 g/Ha): 30 | Herbicidal activity ZEAMX (Zea mays (ZEAMX); 500 g/Ha): 70 | Herbicidal activity on a 0-100 scale, ZEAMX (Zea mays (ZEAMX); 500 g/Ha): 70

Reference: patent publication US20230301300A1, “HERBICIDAL COMPOSITIONS” (SYNGENTA CROP PROTECTION AG, priority 2020, published 2023)
